In patent publication US9090593B2, “Bicyclic compounds as Pim inhibitors” (AMGEN INC., priority 2010, dated 2015) one finds IC50 data, which are given here for 25 compounds.

Where two headings read alike, the source gives them in different places. Some results are limits rather than exact numbers.

Experiment [1] has as its target T1, full length recombinant Pim-1 protein (Homo sapiens, UniProt P11309).
T1 construct: by full length recombinant Pim-1, Pim-2, or Pim-3 protein; hexahistidine tag followed by a thrombin cleavage site (N); made in house; host or cells: Sf9 (baculovirus) or E. coli (pET28)
Kind of experiment: Pim-1 enzyme assay (HTRF, phosphorylation of biotinylated-BAD (S112) peptide). It is filed as biochemical. Conditions: read-out: Pim_1_IC50. In outline:
(§1)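 HTRF readout (europium anti-pBAD S112 antibody, streptavidin-APC) of biotin-BAD peptide phosphorylation by recombinant full-length Pim-1 or Pim-2, buffer 60 mM Hepes pH 7.0, 2 mM DTT, 0.05% BSA. Enzymes were His6-tagged, from baculovirus/Sf9 or E. coli.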
(In TR-FRET formats the signal depends on donor and acceptor labels being close together.)

The target of experiment [2] is T2, full length recombinant Pim-2 protein (Homo sapiens, UniProt Q9P1W9).
T2 construct: by full length recombinant Pim-1, Pim-2, or Pim-3 protein; hexahistidine tag followed by a thrombin cleavage site (N); made in house; host or cells: Sf9 (baculovirus) or E. coli (pET28)
T2 sequence (Q9P1W9 whole entry): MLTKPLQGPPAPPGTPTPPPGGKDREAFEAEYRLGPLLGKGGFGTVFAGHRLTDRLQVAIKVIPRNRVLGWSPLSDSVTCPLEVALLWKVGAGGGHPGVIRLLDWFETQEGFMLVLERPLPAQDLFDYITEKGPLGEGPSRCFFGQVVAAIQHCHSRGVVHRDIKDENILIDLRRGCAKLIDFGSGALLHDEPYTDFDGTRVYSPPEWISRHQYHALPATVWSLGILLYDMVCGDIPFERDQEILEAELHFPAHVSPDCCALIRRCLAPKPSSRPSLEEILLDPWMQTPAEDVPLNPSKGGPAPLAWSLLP
The experiment can be described thus: Pim-2 enzyme assay (HTRF, phosphorylation of biotinylated-BAD (S112) peptide). It is filed as biochemical. Conditions: read-out: Pim2_IC50. The essentials:
as §1

Experiment [3] deals with T3, full length recombinant Pim-3 protein (Homo sapiens, UniProt Q86V86).
T3 construct: by full length recombinant Pim-1, Pim-2, or Pim-3 protein; purchased Millipore (UK)
The experiment can be described thus: Pim-3 enzyme assay (HTRF, phosphorylation of biotinylated-BAD (S112) peptide). It is filed as biochemical. Conditions: read-out: Pim3 IC50. The text has this: Pim-3 was purchased from Millipore (UK).
The phosphorylation of biotinylated-BAD (S112) peptide by full length recombinant Pim-1, Pim-2, or Pim-3 protein was detected with streptavidin:Allophycocyanin (APC) conjugate and a europium (Eu) labeled antibody directed against phosphorylated-BAD (S112). […] The fluorescence is directly proportional to the amount of phosphorylated BAD peptide present in the reaction.
A reference compound was included on each assay plate in order to validate that plate; on one plate of every assay run, two additional reference compounds were included.
The final buffer conditions were as follows: 60 mM Hepes, pH 7.0, 0.05% BSA, 2 mM DTT. […] The reaction was stopped by the addition of 3 mM EDTA, and fluorescence was measured by an HTRF® Rubystar microplate reader. For each plate, percent of control (POC) values were calculated for each well. Values for the IC50 IP were estimated using a standard 4-parameter logistic model.

Experiment [4] concerns the target T4, Pim-2 stably transfected into the U2OS human osteogenic sarcoma line (Homo sapiens, UniProt Q9P1W9).
T4 construct: expressed in transfected cells; host or cells: U2OS human osteogenic sarcoma line
Kind of experiment: Pim cell assay, phospho-BAD normalized against total BAD, U2OS stably transfected with Pim-2. Format: cell-based. Conditions: U2OS stably transfected with Pim-2; phospho-BAD normalized against total BAD; 29 min incubation; read-out: Pim2_Cell_IC50_. In outline:
(§2)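 Read-out is phospho-BAD relative to total BAD, by MSD electrochemiluminescence on lysates, expressed as % phosphoprotein = (2×phospho)/(phospho+total)×100. Engineered U2OS lines carrying stably transfected Pim-1 or Pim-2 received 10-point compound dilutions at 0.3% final DMSO after overnight culture at 37 °C; DMSO-only wells served as high control.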

Experiment [5] concerns the target T5, Pim-1 stably transfected into the U2OS human osteogenic sarcoma line (Homo sapiens, UniProt P11309).
T5 construct: expressed in transfected cells; host or cells: U2OS human osteogenic sarcoma line
Kind of experiment: Pim cell assay, phospho-BAD normalized against total BAD, U2OS stably transfected with Pim-1. It is filed as cell-based. Conditions: U2OS stably transfected with Pim-1; phospho-BAD normalized against total BAD; 29 min incubation; read-out: Pim1_Cell_IC50_. The essentials: as §2

T4 sequence (Q9P1W9 whole entry): as the sequence (Q9P1W9 whole entry) above
T1 sequence (P11309 whole entry): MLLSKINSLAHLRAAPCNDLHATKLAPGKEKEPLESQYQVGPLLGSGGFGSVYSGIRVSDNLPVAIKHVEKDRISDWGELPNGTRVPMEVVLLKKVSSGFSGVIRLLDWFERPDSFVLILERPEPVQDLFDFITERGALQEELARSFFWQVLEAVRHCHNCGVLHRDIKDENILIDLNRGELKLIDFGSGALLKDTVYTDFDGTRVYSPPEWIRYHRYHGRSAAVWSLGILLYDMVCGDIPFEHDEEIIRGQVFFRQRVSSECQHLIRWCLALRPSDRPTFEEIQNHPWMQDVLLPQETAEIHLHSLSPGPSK
T5 sequence (P11309 whole entry): as above

For the compound “3-(6-(4-amino-1-piperidinyl)-2-pyrazinyl)-N-benzyl-1H-indole-5-carboxamide [Example 241]”, the IC50 in experiment [1] (enzyme assay, Pim-1) turned out to be 0.376 µM; in experiment [2] (enzyme assay, Pim-2), 2.48 µM; in experiment [3] it was 0.538 µM.

Take “3-(6-(4-amino-1-piperidinyl)-2-pyrazinyl)-N-phenyl-1H-indole-5-carboxamide [Example 240]”: the IC50 is 0.254 µM in experiment [1] (enzyme assay, Pim-1); greater than 3 µM in experiment [2] (enzyme assay, Pim-2); 0.719 µM in experiment [3].

Take `Fc1cccc(F)c1-c1ccc2[nH]nc(-c3cncc(O[C@@H]4CNCC[C@H]4F)n3)c2c1` (single isomer, unassigned) [Example 18, 5-(2,6-difluorophenyl)-3-(6-(trans-4-fluoropiperidin-3-yloxy)pyrazin-2-yl)-1H-indazole]: the IC50 in experiment [1] (enzyme assay, Pim-1) was determined as 0.075 µM; in experiment [2] (enzyme assay, Pim-2), 0.264 µM; in experiment [3] it was 0.034 µM.

Regarding `COc1cncc(-c2ccc3[nH]nc(-c4cncc(OC)c4)c3c2)c1` [Example 29, 3,5-Bis(5-methoxypyridin-3-yl)-1H-indazole], the IC50 is 0.227 µM in experiment [1] (enzyme assay, Pim-1); 1.01 µM in experiment [2] (enzyme assay, Pim-2); 0.172 µM in experiment [3].

`NC1CCN(c2cncc(-c3n[nH]c4ccc(-c5c(F)cccc5F)cc34)c2)CC1` [Example 35, 1-(5-(5-(2,6-difluorophenyl)-1H-indazol-3-yl)pyridin-3-yl)piperidin-4-amine]: the IC50 was found to be 0.124 µM in experiment [1] (enzyme assay, Pim-1); 2.3 µM in experiment [2] (enzyme assay, Pim-2); 0.104 µM in experiment [3].

Consider `NC1CCN(c2cncc(-c3n[nH]c4ccc(N5CCCCC5=O)cc34)n2)CC1` [Example 91, 1-(3-(6-(4-amino-1-piperidinyl)-2-pyrazinyl)-1H-indazol-5-yl)-2-piperidinone], for which the IC50 was 0.629 µM in experiment [1] (enzyme assay, Pim-1); greater than 3 µM in experiment [2] (enzyme assay, Pim-2); 0.926 µM in experiment [3].

For the compound `Nc1cccnc1-c1ccc2[nH]nc(-c3cncc(N4CCC(N)CC4)n3)c2c1` [Example 94, 2-(3-(6-(4-amino-1-piperidinyl)-2-pyrazinyl)-1H-indazol-5-yl)-3-pyridinamine], the IC50 in experiment [1] (enzyme assay, Pim-1) was 0.086 µM; in experiment [2] (enzyme assay, Pim-2), greater than 1 µM; in experiment [3], 0.118 µM.

Take `Nc1ncc(-c2ccc3[nH]nc(-c4cncc(N5CCC(N)CC5)n4)c3c2)c(NC2CCCC2)n1` [Example 96, 5-(3-(6-(4-amino-1-piperidinyl)-2-pyrazinyl)-1H-indazol-5-yl)-N~4~-cyclopentyl-2,4-pyrimidinediamine]: the IC50 in experiment [1] (enzyme assay, Pim-1) was 0.848 µM; in experiment [2] (enzyme assay, Pim-2), greater than 1 µM; in experiment [3], 1.12 µM.

Turning to `Cc1c(N)cccc1-c1ccc2[nH]nc(-c3cncc(N4CCC(N)CC4)n3)c2c1` [Example 103, 1-(6-(5-(3-amino-2-methylphenyl)-1H-indazol-3-yl)-2-pyrazinyl)-4-piperidinamine], the IC50 in experiment [1] (enzyme assay, Pim-1) came out at 0.034 µM; in experiment [2] (enzyme assay, Pim-2) it was 0.224 µM; in experiment [3], 0.068 µM.

Consider `NC1CCN(c2cncc(-c3n[nH]c4ccc(-c5cccc6c5C5(CCOCC5)CN6)cc34)n2)CC1` [Example 106, 1-(6-(5-(1,2,2′,3′,5′,6′-hexahydrospiro[indole-3,4′-pyran]-4-yl)-1H-indazol-3-yl)-2-pyrazinyl)-4-piperidinamine], for which the IC50 was determined as 0.499 µM in experiment [1] (enzyme assay, Pim-1); 0.897 µM in experiment [2] (enzyme assay, Pim-2); 0.278 µM in experiment [3].

For `Nc1ccc(OC(F)(F)F)c(-c2ccc3[nH]nc(-c4cncc(N5CCC(N)CC5)n4)c3c2)c1` [Example 107, 1-(6-(5-(5-amino-2-(trifluoromethoxy)phenyl)-1H-indazol-3-yl)-2-pyrazinyl)-4-piperidinamine], the IC50 in experiment [1] (enzyme assay, Pim-1) came out at 0.03 µM; in experiment [2] (enzyme assay, Pim-2) it was 0.192 µM; in experiment [3], 0.067 µM.

As for `NC1CCN(c2cncc(-c3n[nH]c4ccc(-c5ccnc6cc(OC(F)(F)F)ccc56)cc34)n2)CC1` [Example 111, 1-(6-(5-(7-(trifluoromethoxy)-4-quinolinyl)-1H-indazol-3-yl)-2-pyrazinyl)-4-piperidinamine], the IC50 in experiment [1] (enzyme assay, Pim-1) came out at 0.029 µM; in experiment [2] (enzyme assay, Pim-2) it was 0.292 µM; in experiment [3] it was 0.087 µM.

For the compound `N#Cc1ccc2c(-c3ccc4[nH]nc(-c5cncc(N6CCC(N)CC6)n5)c4c3)ccnc2c1` [Example 112, 4-(3-(6-(4-amino-1-piperidinyl)-2-pyrazinyl)-1H-indazol-5-yl)-7-quinolinecarbonitrile], the IC50 in experiment [1] (enzyme assay, Pim-1) amounted to 0.032 µM; in experiment [2] (enzyme assay, Pim-2), 0.521 µM; in experiment [3], 0.116 µM.

In the case of `CC(C)(C)NC(=O)c1ccc(F)c(-c2ccc3[nH]nc(-c4cncc(O[C@@H]5CCCNC5)n4)c3c2)c1` [Example 116, N-tert-butyl-4-fluoro-3-(3-(6-((3R)-3-piperidinyloxy)-2-pyrazinyl)-1H-indazol-5-yl)benzamide], the IC50 in experiment [1] (enzyme assay, Pim-1) came out at 0.027 µM; in experiment [2] (enzyme assay, Pim-2), 0.026 µM; in experiment [3], 0.022 µM.

Take `O=c1[nH]cncc1-c1ccc2[nH]nc(-c3cncc(O[C@@H]4CCCNC4)n3)c2c1` [Example 125, 5-(3-(6-((3R)-3-piperidinyloxy)-2-pyrazinyl)-1H-indazol-5-yl)-4(3H)-pyrimidinone]: the IC50 in experiment [1] (enzyme assay, Pim-1) amounted to 0.021 µM; in experiment [2] (enzyme assay, Pim-2), 0.08 µM; in experiment [3], 0.016 µM.

Take `O=c1cc(-c2ccc3[nH]nc(-c4cncc(O[C@@H]5CCCNC5)n4)c3c2)c(Cl)c[nH]1` [Example 128, 5-chloro-4-(3-(6-((3R)-3-piperidinyloxy)-2-pyrazinyl)-1H-indazol-5-yl)-2(1H)-pyridinone]: the IC50 in experiment [1] (enzyme assay, Pim-1) is 0.031 µM; in experiment [2] (enzyme assay, Pim-2), 0.059 µM; in experiment [3] it was 0.03 µM.

Turning to `Cn1cc(-c2ccc3[nH]nc(-c4cncc(O[C@@H]5CCCNC5)n4)c3c2)cn1` [Example 129, 5-(1-methyl-1H-pyrazol-4-yl)-3-(6-((3R)-3-piperidinyloxy)-2-pyrazinyl)-1H-indazole], the IC50 in experiment [1] (enzyme assay, Pim-1) was 0.003 µM; in experiment [2] (enzyme assay, Pim-2) it was 0.03 µM; in experiment [3] it was 0.003 µM.

Turning to `Brc1ccc2[nH]nc(-c3cncc(O[C@@H]4CCCNC4)n3)c2c1` [Example 135, 5-bromo-3-(6-((3R)-3-piperidinyloxy)-2-pyrazinyl)-1H-indazole], the IC50 was 0.083 µM in experiment [1] (enzyme assay, Pim-1); 0.227 µM in experiment [2] (enzyme assay, Pim-2); 0.082 µM in experiment [3].

Regarding `CC(C)Oc1cncc(-c2ccc3[nH]cc(-c4nnc(N[C@@H]5CCCNC5)o4)c3c2)n1` [Example 518], the IC50 in experiment [1] was 0.025 µM; in experiment [4], greater than 31.6 µM; in experiment [5] it was 6.92 µM; in experiment [2] it was 0.097 µM.

With `NC1CCN(c2cncc(-c3c[nH]c4ccc(-c5cncc(NC6CC6)n5)cc34)n2)CC1` [Example 519], the IC50 in experiment [1] is 0.001 µM; in experiment [4] it was greater than 31.6 µM; in experiment [5], 0.338 µM; in experiment [2], 0.128 µM.

On to `CC(C)Nc1nc(-c2n[nH]c3ccc(-c4c(F)cccc4F)cc23)cc(=O)[nH]1` [Example 524], for which the IC50 was 0.005 µM in experiment [1], greater than 31.6 µM in experiment [4], 1.01 µM in experiment [5] and 0.018 µM in experiment [2].

For the compound `CC(C)Oc1nc(-c2n[nH]c3ccc(-c4c(F)cccc4F)cc23)cc(=O)[nH]1` [Example 528], the IC50 in experiment [1] is 0.013 µM; in experiment [4], greater than 15.8 µM; in experiment [5] it was 0.779 µM; in experiment [2] it was 0.036 µM.

On to `COC(=O)c1ccc2[nH]nc(-c3cncc(N4CCC(N)CC4)n3)c2c1` [Example 558, methyl 3-(6-(4-amino-1-piperidinyl)-2-pyrazinyl)-1H-indazole-5-carboxylate], for which the IC50 in experiment [1] was determined as 0.002 µM; in experiment [4] it was 3.8 µM; in experiment [5] it was 0.156 µM; in experiment [2] it was 0.008 µM.

Take `NC1CCN(c2nc(O)cc(-c3n[nH]c4ccc(-c5c(F)cccc5F)cc34)n2)CC1` [Example 565]: the IC50 in experiment [1] came out at 0.001 µM; in experiment [4], 13.5 µM; in experiment [5], 1.76 µM; in experiment [2], 0.002 µM.

In the case of `NC1CCN(c2cc(O)nc(-c3c[nH]c4ccc(-c5c(F)cccc5F)cc34)n2)CC1` [Example 566], the IC50 in experiment [1] is 0.004 µM; in experiment [4] it was greater than 31.6 µM; in experiment [5], 5.59 µM; in experiment [2], 0.023 µM.
